Data on 2 compounds can be found in EP4790066A1, “GLP-1R/GIPR/GCGR TRIPLE AGONIST ANALOGUE AND USE THEREOF” (Shenzhen Bay Laboratory, priority 2023, dated 2025).

*1 amine or outer side, *2 acyl side, *3 side chain or, on linkers, in order; H or OH if unused. Where a SMILES comes first, the peptide text is derived from it. Bridges are numbered along the chain shown (N, C = ends). [ ]: non-standard residue; d: D form. X1 = O=C(O)CCCCCCCCCCCCCCCCCCC(=O)N[C@@H](CCCCNC(=O)COCCOCCNC(=O)COCCOCCNC(=O)CCC(=O)N(CCNC(=O)C[*:1])CCNC(=O)C[*:2])C(=O)O; Phe(2-F) = N[C@@H](Cc1ccccc1F)C(=O)O; αMeL = CC(C)C[C@](C)(N)C(=O)O; Aib = CC(C)(N)C(=O)O

Data set [1] deals with T1, GCGR (Homo sapiens, UniProt P47871).
T1 construct: expressed in transfected cells
Kind of data set: CreLuc method (CRE-luciferase reporter), 293HEK/pGM-CREB-L-Luc/GCGR pool. Type of data set: cell-based. To be noted: 6 h incubation, read-out: EC50 (pM) for each receptor GCGR. The method in brief:
(§1)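 Stable HEK293 pools co-expressing each receptor with a CRE-luciferase reporter were plated at 20,000 cells/well in freestyle medium and treated with compound dilution series for 6 h at 37 °C. Luminescence was read with ONE-GLO to derive EC50.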
Background: A reporter such as luciferase makes a cellular process visible.

For another data set, the target named is T2, GLP-1R (Homo sapiens, UniProt P43220).
T2 construct: expressed in transfected cells
Kind of data set: CreLuc method (CRE-luciferase reporter), HEK293/pGM-CREB-L-Luc/GLP-1R pool. Type of data set: cell-based. To be noted: 6 h incubation, read-out: EC50 (pM) for each receptor GLP-1R. The method in brief:
as §1

The nature of a further data set: in vivo. The arrangement: species or system male SD rats. To be noted: rat. The procedure:
The pharmacokinetic behavior of target peptide derivatives (or polypeptide derivatives) prepared in Example 1 and Example 2, i.e., TG1-TG94 in rodents was tested. The specific steps are as follows:
The target peptide derivatives (TG1-TG94) to be tested were administered to male SD rats via subcutaneous injection (SC, 3 mg/kg; drug vehicle: PBS, concentration: 1.5 mg/mL; administration volume: 2 mL) and intravenous injection (IV, 1 mg/kg; drug vehicle: PBS, concentration: 0.5 mg/mL; administration volume: 2 mL) as a single dose, respectively. Whole blood samples were collected from the jugular vein or other appropriate vein at the following time points after administration: for SC, 15 min, 30 min, 1 h, 2 h, 4 h, 6 h, 8 h, 24 h, 48 h, 72 h, 96 h, 120 h, and 168 h; for IV, 5 min, 15 min, 30 min, 1 h, 2 h, 4 h, 8 h, 24 h, 48 h, 72 h, 96 h, 120 h, and 168 h. 0.2 mL of blood was collected and transferred into a labeled EDTA-K2 anticoagulant tube. The tube was gently inverted to ensure thorough mixing of the anticoagulant (EDTA-K2) with the blood and immediately placed on wet ice. Plasma separation was performed as soon as possible by centrifugation under the following conditions: 4°C, 6800xg, for 6 min. The plasma samples were stored in a refrigerator at no higher than -20°C and used for analysis when needed.
Under the condition of yellow light in an ice-water bath, except for blank samples, 300 µL of precipitant containing an internal standard was added to a 96-well plate containing 20 µL of standard curve sample, quality control sample, or unknown sample; 300 µL of acetonitrile was added to the blank sample. The mixture was vortexed, mixed well, and then centrifuged. 150 µL of the supernatant after centrifugation was transferred to a new 96-well plate, and 150 µL of ultrapure water was added and mixed well. The above samples were subjected to quantitative analysis using LC-MS analysis with XB-C18 (2.1 * 100 mm, 3 µm) chromatography for gradient elution. The mobile phases used were: mobile phase A = 0.1% formic acid-water; mobile phase B = acetonitrile. Phoenix WinNonlin software was used to calculate the pharmacokinetic parameters. […] Table 5A: Pharmacokinetic parameters of target peptide derivatives

Data set [2] concerns the target T3, GIPR (Homo sapiens, UniProt P48546).
T3 construct: expressed in transfected cells
T3 sequence (P48546 22-466): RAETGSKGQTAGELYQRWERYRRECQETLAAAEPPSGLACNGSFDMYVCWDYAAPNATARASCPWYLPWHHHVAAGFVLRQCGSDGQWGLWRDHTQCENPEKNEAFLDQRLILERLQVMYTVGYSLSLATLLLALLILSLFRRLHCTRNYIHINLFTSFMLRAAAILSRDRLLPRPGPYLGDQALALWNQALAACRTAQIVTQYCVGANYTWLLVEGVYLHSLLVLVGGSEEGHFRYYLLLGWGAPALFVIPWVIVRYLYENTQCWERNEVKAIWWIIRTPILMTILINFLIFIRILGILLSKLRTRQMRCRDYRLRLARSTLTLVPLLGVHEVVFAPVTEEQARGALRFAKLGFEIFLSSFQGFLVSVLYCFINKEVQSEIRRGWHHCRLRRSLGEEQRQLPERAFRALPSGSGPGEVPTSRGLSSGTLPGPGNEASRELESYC
The data set can be described thus: CreLuc method (CRE-luciferase reporter), HEK293/pGM-CREB-L-Luc/GIPR pool. Type of data set: cell-based. Conditions: 6 h incubation, read-out: EC50 (pM) for each receptor GIPR. An outline of the steps:
as §1

For data set [3], the target named is T1, GCGR. The data set can be described thus: cAMP method (HTRF cAMP detection kit), HEK293/pGM-CREB-L-Luc/GCG pool. Type of data set: cell-based. To be noted: read-out: EC50 (pM) for each receptor GCGR. The procedure: (§2) 2. Insulinotropic analogues can bind to target receptors on the cell membrane, activate the receptors, and induce release. The activity of the test substance can be determined using the HTRF method with a cAMP detection kit. Therefore, the cAMP method can be used to detect the target peptide derivatives (or polypeptide derivatives, i.e., TG1-TG86) prepared in Example 1 and Example 2. […] The test cell line was selected, treated with cAMP-specific trypsin for digestion. 3 mL of serum-free DMEM culture medium was added, and the cells were pipetted, resuspended, and counted. 5 µL of IBMX (prepared with serum-free DMEM medium, 0.5 mM) and test cells (5 µL/7500 cells/well) were added in a 384-well plate sequentially. The plate was incubated at 37°C under 5% CO2 for 30 min, followed by the addition of cAMP-d2 (5 µL, 1x) and Anti-cAMP-Cryptate (5 µL, 1x). The mixture was kept at room temperature for 1 h, after which the HTRF value was measured using a chemiluminescent microplate reader, and the determination result was recorded. […] Table 4: EC50 values for target peptide derivatives
(In general: TR-FRET usually uses a lanthanide donor and a delayed reading to cut background.)

Data set [4] concerns the target T3, GIPR. Kind of data set: cAMP method (HTRF cAMP detection kit), HEK293/pGM-CREB-L-Luc/GIP pool. Conditions: read-out: EC50 (pM) for each receptor GIPR. Type of data set: cell-based. As for the experimental part:
as §2

T1 sequence (P47871 26-477, species assumed): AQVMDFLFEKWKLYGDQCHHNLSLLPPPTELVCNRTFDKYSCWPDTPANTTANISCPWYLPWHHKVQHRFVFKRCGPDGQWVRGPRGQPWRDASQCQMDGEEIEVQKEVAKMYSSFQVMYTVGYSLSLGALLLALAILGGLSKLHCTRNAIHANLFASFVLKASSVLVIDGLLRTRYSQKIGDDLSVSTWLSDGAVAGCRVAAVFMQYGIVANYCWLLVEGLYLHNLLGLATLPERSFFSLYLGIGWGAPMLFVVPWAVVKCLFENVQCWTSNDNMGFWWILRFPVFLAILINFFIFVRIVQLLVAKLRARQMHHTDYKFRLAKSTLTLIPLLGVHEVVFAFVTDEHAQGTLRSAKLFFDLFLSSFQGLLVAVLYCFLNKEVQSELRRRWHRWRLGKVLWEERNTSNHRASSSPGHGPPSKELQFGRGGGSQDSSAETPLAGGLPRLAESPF
T2 sequence (P43220 24-463, species assumed): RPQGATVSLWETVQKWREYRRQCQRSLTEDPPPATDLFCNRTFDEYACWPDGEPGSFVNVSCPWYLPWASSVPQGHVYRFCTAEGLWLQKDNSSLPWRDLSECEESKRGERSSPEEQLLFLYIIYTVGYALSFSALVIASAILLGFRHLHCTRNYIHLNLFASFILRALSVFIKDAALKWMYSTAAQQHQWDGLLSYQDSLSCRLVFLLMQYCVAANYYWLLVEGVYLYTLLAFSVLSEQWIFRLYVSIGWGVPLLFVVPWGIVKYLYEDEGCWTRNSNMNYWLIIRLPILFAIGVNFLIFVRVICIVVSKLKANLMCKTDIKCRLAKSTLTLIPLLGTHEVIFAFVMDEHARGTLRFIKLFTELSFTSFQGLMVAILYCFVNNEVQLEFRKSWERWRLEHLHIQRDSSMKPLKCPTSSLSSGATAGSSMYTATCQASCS

With `CC[C@H](C)[C@H](NC(=O)[C@H](Cc1ccccc1)NC(=O)[C@H](C)NC(=O)[C@@H]1CCCCNC(=O)CN(C(=O)CCCNC(=O)COCCOCCNC(=O)COCCOCCNC(=O)CC[C@H](NC(=O)CCCCCCCCCCCCCCCCCCC(=O)O)C(=O)O)CC(=O)NCCCC[C@H](NC(=O)[C@H](CCCCN)NC(=O)[C@H](CC(=O)O)NC(=O)[C@H](CC(C)C)NC(=O)[C@](C)(CC(C)C)NC(=O)[C@@H](NC(=O)[C@H](CO)NC(=O)[C@H](Cc2ccc(O)cc2)NC(=O)[C@H](CC(=O)O)NC(=O)[C@H](CO)NC(=O)[C@@H](NC(=O)[C@H](Cc2ccccc2F)NC(=O)[C@@H](NC(=O)CNC(=O)[C@H](CCC(N)=O)NC(=O)C(C)(C)NC(=O)[C@@H](N)Cc2ccc(O)cc2)[C@@H](C)O)[C@@H](C)O)[C@@H](C)CC)C(=O)N[C@@H](C)C(=O)N[C@@H](CCC(N)=O)C(=O)N1)C(=O)N[C@@H](CCC(=O)O)C(=O)N[C@@H](Cc1ccc(O)cc1)C(=O)N[C@@H](CC(C)C)C(=O)N[C@@H](CC(C)C)C(=O)N[C@@H](C)C(=O)NCC(=O)NCC(=O)N1CCC[C@H]1C(=O)N[C@@H](CO)C(=O)N[C@@H](CO)C(=O)NCC(=O)N[C@@H](C)C(=O)N1CCC[C@H]1C(=O)N1CCC[C@H]1C(=O)N1CCC[C@H]1C(=O)N[C@@H](CO)C(N)=O` [TG87], the EC50 on GCGR [1] came to 172 pM. For the same compound, the concentration for a half-maximal effect (EC50) at GLP-1R amounted to 171 pM. For the same compound, in the data set “in vivo” (male, SD, iv, 1 mg/kg), the AUC(0-inf) was determined as 257 µg·h/mL, the AUC(0-t) is 254 µg·h/mL, the MRT turned out to be 21.4 h and the Vd amounted to 0.0891 L/kg. In the data set “in vivo” (male, SD, iv, 1 mg/kg), this compound gave a clearance of 0.0706 mL/min/kg and a half-life of 13.9 h. Further, in the data set “in vivo” (male, SD, sc), the bioavailability was 31.8%. In the data set “in vivo” (male, SD, sc, 3 mg/kg), this compound showed an AUC(0-inf) of 245 µg·h/mL, an AUC(0-t) of 243 µg·h/mL, a CL/F of 0.204 mL/min/kg and a Cmax of 4880 ng/mL. In the data set “in vivo” (male, SD, sc, 3 mg/kg), the MRT came to 32.3 h, the Tmax is 24 h and the half-life was 15.6 h. Also, in the data set “in vivo” (iv, 1 mg/kg), the “AUC0-t /AUC0-inf” value came out at 0.989 and the Kel is 0.0504 h⁻¹. In addition, in “in vivo” (sc, 3 mg/kg), the “AUC0-t /AUC0-inf” value is 0.993 and the Vz/F amounted to 0.276 L/kg. In addition, the EC50 on GIPR [2] is 27.6 pM.

Turning to `CC[C@H](C)[C@H](NC(=O)[C@H](Cc1ccccc1)NC(=O)[C@H](C)NC(=O)[C@@H]1CSCC(=O)NCCN(C(=O)CCC(=O)NCCOCCOCC(=O)NCCOCCOCC(=O)NCCCC[C@H](NC(=O)CCCCCCCCCCCCCCCCCCC(=O)O)C(=O)O)CCNC(=O)CSC[C@H](NC(=O)[C@H](CCCCN)NC(=O)[C@H](CC(=O)O)NC(=O)[C@H](CC(C)C)NC(=O)[C@](C)(CC(C)C)NC(=O)[C@@H](NC(=O)[C@H](CO)NC(=O)[C@H](Cc2ccc(O)cc2)NC(=O)[C@H](CC(=O)O)NC(=O)[C@H](CO)NC(=O)[C@@H](NC(=O)[C@H](Cc2ccccc2F)NC(=O)[C@@H](NC(=O)CNC(=O)[C@H](CCC(N)=O)NC(=O)C(C)(C)NC(=O)[C@@H](N)Cc2ccc(O)cc2)[C@@H](C)O)[C@@H](C)O)[C@@H](C)CC)C(=O)N[C@@H](C)C(=O)N[C@@H](CCC(N)=O)C(=O)N1)C(=O)N[C@@H](CCC(=O)O)C(=O)N[C@@H](Cc1ccc(O)cc1)C(=O)N[C@@H](CC(C)C)C(=O)N[C@@H](CC(C)C)C(=O)N[C@@H](C)C(=O)NCC(=O)NCC(=O)N1CCC[C@H]1C(=O)N[C@@H](CO)C(=O)N[C@@H](CO)C(=O)NCC(=O)N[C@@H](C)C(=O)N1CCC[C@H]1C(=O)N1CCC[C@H]1C(=O)N1CCC[C@H]1C(=O)N[C@@H](CO)C(N)=O` [TG59] (H-Y[Aib]QGT[Phe(2-F)]TSDYSI[αMeL]LDKCAQCAFIEYLLAGGPSSGAPPPS-NH2; linker 17-20 via X1), the EC50 at GCGR [1] stood at 392 pM; at GLP-1R it was 51.8 pM; on GCGR [3] it was 9.1 pM; at GIPR [4], 3.9 pM; at GIPR [2], 30.7 pM.

One may read the EC50 as the concentration giving half of the maximal effect. A word on the AUC(0-inf): it is total exposure, with the tail of the curve extrapolated. A lower AUC(0-inf) goes with less exposure. Broadly, the AUC(0-t) is exposure summed from dosing to a finite time, without extrapolation to infinity. A lower AUC(0-t) goes with less exposure. For orientation: MRT means a mean duration of stay, worked out from the concentration-time curve. The Vd is the apparent volume that relates the amount in the body to the concentration in plasma or blood. Low readings indicate little distribution into tissue, high ones wide distribution into tissue. A word on the clearance: it is the volume of plasma or blood freed of the substance per unit of time. A high value points to a high capacity for elimination. As usually defined, the half-life is how long it takes for the measured level to halve. One may read the bioavailability as the share of a dose that reaches the circulation, judged against a reference dose that is usually intravenous. The term CL/F denotes clearance divided by bioavailability, as obtained after extravascular dosing. Usually Cmax stands for the maximum level reached in the sampled fluid or tissue. In general, Tmax refers to the time from dosing to the highest level.
